Test results reported in patent US4017607A.
In brackets after ≈: the same amount, converted by molar mass. Read-outs that look alike come from different tables or passages of the source.

Experiments:
[1] = system: gram-negative and gram-positive bacteria; experiment: Antibacterial activity (in words); type: cell-based
[2] = system: Sarcina lutea; experiment: Minimum inhibitory concentration, serial dilution method; type: cell-based; conditions: Micrococcus luteus; Sarcina lutea; 24 hours, 37° C; read-out: Minimum Inhibitory Concentration
[3] = system: Corynebacterium diphtheriae Type gravis; experiment: as above; type: cell-based; conditions: Corynebacterium diphtheriae Type gravis; 24 hours, 37° C; read-out: Minimum Inhibitory Concentration
[4] = system: Bacillus anthracis No. 119; experiment: microbe, parasite or virus in culture; type: cell-based; conditions: NO.119, 24 h, read-out: Minimum Inhibitory Concentration
[5] = system: Staphylococcus albus 1200A; experiment: Minimum inhibitory concentration, serial dilution method; type: cell-based; conditions: read-out: Minimum Inhibitory Concentration
[6] = system: Diplococcus pneumoniae Type I; experiment: as above; type: cell-based; conditions: Streptococcus pneumoniae; Diplococcus pneumoniae Type I; 24 hours, 37° C; read-out: Minimum Inhibitory Concentration
[7] = system: Staphylococcus aureus Smith; experiment: as above; type: cell-based; conditions: Staphylococcus aureus Smith; 24 hours, 37° C; read-out: Minimum Inhibitory Concentration
[8] = system: Streptococcus hemolyticus Cook; experiment: as above; type: cell-based; conditions: Streptococcus pyogenes; Streptococcus hemolyticus Cook; 24 hours, 37° C; read-out: Minimum Inhibitory Concentration
[9] = system: Diplococcus pneumoniae Type III; experiment: as above; type: cell-based; conditions: Streptococcus pneumoniae; Diplococcus pneumoniae Type III; 24 hours, 37° C; read-out: Minimum Inhibitory Concentration
[10] = system: Bacillus subtilis PCI 219; experiment: as above; type: cell-based; conditions: PCI219; Bacillus subtilis PCI 219; 24 hours, 37° C; read-out: Minimum Inhibitory Concentration
[11] = system: Staphylococcus aureus 209P; experiment: Minimum inhibitory concentration, serial dilution method, Brain Heart Infusion broth; type: cell-based; conditions: Staphylococcus aureus, 209P, 24 h, read-out: Minimum Inhibitory Concentration
[12] = system: Bacillus subtilis ATCC 6633; experiment: Minimum inhibitory concentration, serial dilution method; type: cell-based; conditions: read-out: Minimum Inhibitory Concentration
[13] = system: Corynebacterium diphtheriae Type intermedius; experiment: as above; type: cell-based; conditions: Corynebacterium diphtheriae Type intermedius; 24 hours, 37° C; read-out: Minimum Inhibitory Concentration
[14] = system: Staphylococcus aureus 209P; conditions: 7th day, 10 mice per group
[15] = system: Streptococcus hemolyticus D-90; experiment: Minimum inhibitory concentration, serial dilution method; type: cell-based; conditions: Streptococcus pyogenes, D90, 24 h, read-out: Minimum Inhibitory Concentration
[16] = system: Streptococcus faecalis ATCC 8043; experiment: as above; type: cell-based; conditions: Enterococcus faecalis, read-out: Minimum Inhibitory Concentration
[17] = system: Streptococcus pyogenes D-58; experiment: as above; type: cell-based; conditions: D58; Streptococcus pyogenes D-58; 24 hours, 37° C; read-out: Minimum Inhibitory Concentration
[18] = system: Staphylococcus aureus Terajima; experiment: as above; type: cell-based; conditions: Staphylococcus aureus, 24 h, read-out: Minimum Inhibitory Concentration

## CCC(=O)OC1CC(=O)OC(C)CC=CC=CC(OC(C)=O)C(C)CC(C=COC(C)=O)C(OC2OC(C)C(OC3CC(C)(OC(=O)CC)C(OC(C)=O)C(C)O3)C(N(C)C)C2OC(C)=O)C1OC (stereo not shown)
[1]
  antibacterial activity: substantially no antibacterial activity

## CCC(=O)OC1CC(=O)OC(C)CC=CC=CC(OC(C)=O)C(C)CC(C=COC(C)=O)C(OC2OC(C)C(OC3CC(C)(OC(=O)CC)C(OC(C)=O)C(C)O3)C(N(C)C)C2O)C1OC (stereo not shown)
[1]
  antibacterial activity: no antibacterial activity

## 9,2' -di-acetyl-18,3" -di-propionyl SF-837 substance
[1]
  antibacterial activity: observed

## CCC(=O)OC1CC(=O)OC(C)CC=CC=CC(OC(C)=O)C(C)CC(CC=O)C(OC2OC(C)C(OC3CC(C)(O)C(OC(=O)CC)C(C)O3)C(N(C)C)C2OC(C)=O)C1OC (stereo not shown) [9,2'-di-acetyl SF-837 substance, reference compound]
[2]
  MIC: 0.19 µg/mL (≈ 0.212 µM)
[3]
  MIC: 0.39 µg/mL (≈ 0.434 µM)
[4]
  MIC: 1.56 µg/mL (≈ 1.74 µM)
[5]; Staphylococcus, 1200A, 24 h
  MIC: 1.56 µg/mL (≈ 1.74 µM)
[6]
  MIC: 0.09 µg/mL (≈ 0.1 µM)
[7]
  MIC: 0.39 µg/mL (≈ 0.434 µM)
[8]
  MIC: 0.19 µg/mL (≈ 0.212 µM)
[9]
  MIC: 0.09 µg/mL (≈ 0.1 µM)
[10]
  MIC: 0.78 µg/mL (≈ 0.869 µM)
[11]
  MIC: 1.56 µg/mL (≈ 1.74 µM)
[12]; ATCC6633, Bacillus subtilis ATCC 6633, 24 hours, 37° C
  MIC: 3.12 µg/mL (≈ 3.47 µM)
[13]
  MIC: 0.19 µg/mL (≈ 0.212 µM)
[14]; 100 mg/kg oral
  Rate of surviving mice in each group of mice: 0/10
[14]; 200 mg/kg oral
  Rate of surviving mice in each group of mice: 6/10
[15]
  MIC: 1.56 µg/mL (≈ 1.74 µM)
[16]; ATCC8043, Streptococcus faecalis ATCC 8043, 24 hours, 37° C
  MIC: 3.12 µg/mL (≈ 3.47 µM)
[17]
  MIC: 0.19 µg/mL (≈ 0.212 µM)
[18]
  MIC: 1.56 µg/mL (≈ 1.74 µM)

## CCC(=O)OC=CC1CC(C)C(OC(C)=O)C=CC=CCC(C)OC(=O)CC(OC(=O)CC)C(OC)C1OC1OC(C)C(OC2CC(C)(OC(=O)CC)C(OC(=O)CC)C(C)O2)C(N(C)C)C1O (stereo not shown) [9-acetyl-18,3"-di-propionyl SF-837 substance]
[1]
  antibacterial activity: Not observed

## CCC(=O)OC1CC(=O)OC(C)CC=CC=CC(OC(C)=O)C(C)CC(CC=O)C(OC2OC(C)C(OC3CC(C)(O)C(OC(=O)CC)C(C)O3)C(N(C)C)C2O)C1OC (stereo not shown) [9-mono-acetyl SF-837 substance, reference compound]
[2]
  MIC: 0.09 µg/mL (≈ 0.105 µM)
[3]
  MIC: 0.19 µg/mL (≈ 0.222 µM)
[4]
  MIC: 1.56 µg/mL (≈ 1.82 µM)
[5]; Staphylococcus albus 1200A, 24 hours, 37° C
  MIC: 0.78 µg/mL (≈ 0.911 µM)
[6]
  MIC: 0.04 µg/mL (≈ 0.0467 µM)
[7]
  MIC: 0.78 µg/mL (≈ 0.911 µM)
[8]
  MIC: 0.39 µg/mL (≈ 0.456 µM)
[9]
  MIC: 0.04 µg/mL (≈ 0.0467 µM)
[10]
  MIC: 0.78 µg/mL (≈ 0.911 µM)
[11]
  MIC: 1.56 µg/mL (≈ 1.82 µM)
[12]; Bacillus subtilis, ATCC6633, 24 h
  MIC: 1.56 µg/mL (≈ 1.82 µM)
[13]
  MIC: 0.19 µg/mL (≈ 0.222 µM)
[14]; 100 mg/kg oral
  Rate of surviving mice in each group of mice: 5/10
[14]; 200 mg/kg oral
  Rate of surviving mice in each group of mice: 8/10
[15]
  MIC: 1.56 µg/mL (≈ 1.82 µM)
[16]; ATCC8043, 24 h
  MIC: 1.56 µg/mL (≈ 1.82 µM)
[17]
  MIC: 0.39 µg/mL (≈ 0.456 µM)
[18]
  MIC: 1.56 µg/mL (≈ 1.82 µM)
